For orientation: IC50 means the concentration at which inhibition is half-maximal. As usually defined, the CC50 is the concentration that lowers cell viability or growth by half. Low readings indicate harm at low concentration, high ones better tolerance by the cells. The melting point is the temperature of the solid-liquid transition.

This is an account of results in paper PMC6412891, “Synthesis and Biological Evaluation of Novel Thiazolyl-Coumarin Derivatives as Potent Histone Deacetylase Inhibitors with Antifibrotic Activity” (Molecules, 2019).

Like-named read-outs stand apart in the source and are kept apart here.

In one data set the test system is CFs. The arrangement: method as in PMID 24631770, PMID 24374140. Conditions: cited from earlier work.
The next data set relates to HDACs. Conditions: read-out: IC50 HDAC inhibition, cited from earlier work.
In data set [1] the test system is neonatal rat cardiac fibroblasts (CFs). The experiment in a line: FBS-induced cardiac fibroblast proliferation assay (Alamar Blue). The data set is classed as cell-based. Conditions: 10% FBS-induced CF proliferation, 48 h, read-out: Inhibition percentage of cell proliferation. The procedure: CFs were treated for 48 h with 10% fetal bovine serum (FBS), to induce CFs proliferation in presence/absence of each new CTz derivatives in a concentration range of 1–10 μM. In Table 4, the inhibition percentage of cell proliferation for each concentration of the synthesized compounds are shown. All derivatives inhibited CFs proliferation induce by serum.
Sprague Dawley rats were obtained from the Animal Breeding Facility of the School of Chemical and Pharmaceutical Sciences at the University of Chile. All studies followed the Guide for the Care and Use of Laboratory Animals published by the US National Institutes of Health (NIH Publication 8th, 2011), and experimental protocols were approved by the University of Chile Institutional Ethics Review Committee. CF were isolated from of 2 or 3–day–old Sprague-Dawley rats and cultured as described previously. Briefly, the neonatal rats were decapitated and their hearts were extracted under aseptic environment. Atria were removed and ventricles were cut into small pieces (~1–2 mm) for posterior colagenase II digestion. The digestion yield was separated by 10 min centrifugation at 89×g. The pellet was resuspended in 10 mL of Dulbecco’s Modified Eagle’s Medium/Nutrient F-12 (DMEM-F12) supplemented with 10% FBS and antibiotics (100 μg/mL streptomycin and 100 units/mL penicillin) and cultured in a humid atmosphere of 5% CO2 and 95% O2 at 37°C until confluence (5 days). The purity of the CFs population was assessed through the expression of several markers. CFs had positive staining against vimentin (Santa Cruz Biotechnology), while being negative against sarcomeric actin and desmin (Sigma-Aldrich). Experiments were performed on cells at passage 1. […]
To evaluate cytotoxicity, CFs were seeded in 12 microwell plates at a ratio of 2 × 10^4 cell/cm^2, cultured in DMEM–F12 medium + 10% FBS, which was subsequently replaced by DMEM–F12. After 24 h of serum starvation derivatives were applied at proper times and concentrations in accordance to experimental procedures. Cell viability assays were carried out using Alamar Blue®, a nontoxic, cell permeable non fluorescent compound that is blue in color. Viable cells reduce resazurin to resorufin, which produces very bright red fluorescence which is used as a quantitative cell viability measure. […] The fluorescence of Alamar Blue® was read using microplate reader at 570 excitation and emission to 595 nm. Cell survival was expressed as percentage over the untreated cells. […] Cell proliferation was quantified by Alamar Blue®, according to protocol mentioned before. Cell proliferation was expressed as percentage over the control FBS treated cells.

Another data set deals with T1, HDAC6 human recombinant (Homo sapiens, UniProt Q9UBN7).
T1 construct: purchased Enzo Life Science BML-AK516
T1 sequence (Q9UBN7 1-1215): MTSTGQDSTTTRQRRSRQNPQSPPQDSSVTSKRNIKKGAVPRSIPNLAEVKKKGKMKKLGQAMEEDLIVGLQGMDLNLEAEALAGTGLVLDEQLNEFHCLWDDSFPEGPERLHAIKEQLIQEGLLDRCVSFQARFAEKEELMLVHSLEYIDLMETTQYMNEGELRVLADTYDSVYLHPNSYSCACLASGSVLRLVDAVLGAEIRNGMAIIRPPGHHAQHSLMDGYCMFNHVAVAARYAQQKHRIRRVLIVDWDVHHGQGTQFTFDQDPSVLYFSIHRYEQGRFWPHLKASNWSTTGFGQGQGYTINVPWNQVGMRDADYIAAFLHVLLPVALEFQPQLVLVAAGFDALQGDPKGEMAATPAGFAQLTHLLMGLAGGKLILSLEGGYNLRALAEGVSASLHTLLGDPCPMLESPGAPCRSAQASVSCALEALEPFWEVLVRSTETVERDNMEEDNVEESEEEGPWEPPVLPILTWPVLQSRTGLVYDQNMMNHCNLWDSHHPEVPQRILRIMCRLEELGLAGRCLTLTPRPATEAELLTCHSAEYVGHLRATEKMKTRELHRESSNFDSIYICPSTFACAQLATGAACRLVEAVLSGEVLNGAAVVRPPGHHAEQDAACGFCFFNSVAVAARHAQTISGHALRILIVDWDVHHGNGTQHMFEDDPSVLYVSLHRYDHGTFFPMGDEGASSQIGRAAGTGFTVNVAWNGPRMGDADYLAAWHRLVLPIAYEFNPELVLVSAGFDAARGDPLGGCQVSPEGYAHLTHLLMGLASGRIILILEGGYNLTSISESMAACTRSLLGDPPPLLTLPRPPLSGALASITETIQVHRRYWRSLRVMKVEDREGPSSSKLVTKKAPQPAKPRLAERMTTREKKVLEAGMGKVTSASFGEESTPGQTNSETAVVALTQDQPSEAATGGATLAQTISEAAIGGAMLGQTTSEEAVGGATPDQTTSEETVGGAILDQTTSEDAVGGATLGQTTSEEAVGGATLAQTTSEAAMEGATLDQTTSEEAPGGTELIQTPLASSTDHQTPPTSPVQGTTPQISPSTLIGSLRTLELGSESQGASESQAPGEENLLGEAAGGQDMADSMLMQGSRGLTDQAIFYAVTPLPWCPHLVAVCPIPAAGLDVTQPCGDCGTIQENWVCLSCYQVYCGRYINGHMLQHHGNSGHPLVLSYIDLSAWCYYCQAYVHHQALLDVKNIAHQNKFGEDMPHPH
The experiment in a line: HDAC6 inhibitory activity, fluorometric kit. Format: biochemical. To be noted: Class II.

The target in another data set is T2, HDAC1 human recombinant (Homo sapiens, UniProt Q13547).
T2 construct: purchased Enzo Life Science BML-AK511
T2 sequence (Q13547 whole entry): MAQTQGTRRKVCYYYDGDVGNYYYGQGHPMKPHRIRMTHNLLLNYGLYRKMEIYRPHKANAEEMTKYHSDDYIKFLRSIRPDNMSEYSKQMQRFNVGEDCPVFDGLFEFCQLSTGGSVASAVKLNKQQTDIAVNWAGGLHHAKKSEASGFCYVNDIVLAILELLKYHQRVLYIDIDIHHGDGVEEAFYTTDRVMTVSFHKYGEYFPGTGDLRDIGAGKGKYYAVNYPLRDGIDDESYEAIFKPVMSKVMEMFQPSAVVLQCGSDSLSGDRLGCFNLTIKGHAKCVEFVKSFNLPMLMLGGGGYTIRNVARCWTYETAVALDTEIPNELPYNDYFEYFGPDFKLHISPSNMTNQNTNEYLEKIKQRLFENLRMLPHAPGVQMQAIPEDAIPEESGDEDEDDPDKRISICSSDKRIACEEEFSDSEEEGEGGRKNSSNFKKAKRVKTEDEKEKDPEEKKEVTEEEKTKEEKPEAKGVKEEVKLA
The data set is described as follows: HDAC1 inhibitory activity, fluorometric kit. Format: biochemical. Conditions: Class I.

Data set [2] is described as follows: Cytotoxicity assay (Alamar Blue) in cardiac fibroblasts. The data set is classed as cell-based, rat. Conditions: Sprague-Dawley, rat, primary neonatal rat cardiac fibroblasts (CFs), CFs treated for 48 h. The procedure: (§1) CFs were treated for 48 h with all the new CTz derivatives in a broad concentration range (100 μM^−1 mM), and their cytotoxicity was then evaluated. In Table 3 cytotoxic concentration 50 (CC50) values for each of the synthesized compounds are shown. […] When comparing the different ZBG the series 5 is the least cytotoxic for CFs, while series 8 was the most cytotoxic.
(§2) Sprague Dawley rats were obtained from the Animal Breeding Facility of the School of Chemical and Pharmaceutical Sciences at the University of Chile. All studies followed the Guide for the Care and Use of Laboratory Animals published by the US National Institutes of Health (NIH Publication 8th, 2011), and experimental protocols were approved by the University of Chile Institutional Ethics Review Committee. CF were isolated from of 2 or 3–day–old Sprague-Dawley rats and cultured as described previously. Briefly, the neonatal rats were decapitated and their hearts were extracted under aseptic environment. Atria were removed and ventricles were cut into small pieces (~1–2 mm) for posterior colagenase II digestion. The digestion yield was separated by 10 min centrifugation at 89×g. The pellet was resuspended in 10 mL of Dulbecco’s Modified Eagle’s Medium/Nutrient F-12 (DMEM-F12) supplemented with 10% FBS and antibiotics (100 μg/mL streptomycin and 100 units/mL penicillin) and cultured in a humid atmosphere of 5% CO2 and 95% O2 at 37°C until confluence (5 days). The purity of the CFs population was assessed through the expression of several markers. CFs had positive staining against vimentin (Santa Cruz Biotechnology), while being negative against sarcomeric actin and desmin (Sigma-Aldrich). Experiments were performed on cells at passage 1. Cells were cultured in 35-mm well plates and serum starved for 24 h prior to stimulation.
(§3) To evaluate cytotoxicity, CFs were seeded in 12 microwell plates at a ratio of 2 × 10^4 cell/cm^2, cultured in DMEM–F12 medium + 10% FBS, which was subsequently replaced by DMEM–F12. After 24 h of serum starvation derivatives were applied at proper times and concentrations in accordance to experimental procedures. Cell viability assays were carried out using Alamar Blue®, a nontoxic, cell permeable non fluorescent compound that is blue in color. Viable cells reduce resazurin to resorufin, which produces very bright red fluorescence which is used as a quantitative cell viability measure. 10 μL of 0.2 mg/mL Alamar Blue® was added into each well followed by incubation for 24 h. The fluorescence of Alamar Blue® was read using microplate reader at 570 excitation and emission to 595 nm. Cell survival was expressed as percentage over the untreated cells. To evaluate CFs proliferation assay, cells were seeded as mentioned before, and after serum starvation, they were stimulated by 10% fetal bovine serum (FBS), in presence/absence of CTz derivatives for […], at concentrations according to experiment. Cell proliferation was quantified by Alamar Blue®, according to protocol mentioned before. Cell proliferation was expressed as percentage over the control FBS treated cells.
For orientation: Resazurin is reduced to fluorescent resorufin, in cell work by metabolically active cells.

Data set [3] deals with neonatal rat cardiac fibroblasts (CFs). The description is as above. To be noted: CFs treated for 48 h. Format: cell-based. The procedure: as §1, §2, §3
Data set [4] concerns HDACs HeLa cells nuclear extract. The data set is described as follows: HDAC inhibitory activity, fluorometric kit, HeLa cell nuclear extract. Format: biochemical, human. Conditions: HeLa cell nuclear extract as HDAC source.

For `CCC(=O)CCCCC[C@@H]1NC(=O)[C@H]2CCCCN2C(=O)[C@H]([C@@H](C)CC)NC(=O)[C@H](Cc2cn(OC)c3ccccc23)NC1=O` [apicidin], in the data set with CFs, the “concentration shown to inhibit the proliferation of CFs” value is 3 µM.

As for `O=C(/C=C/c1ccc(O)c(O)c1)O[C@@H]1C[C@](O)(C(=O)O)C[C@@H](O)[C@H]1O` [chlorogenic acid], the IC50 in the data set with HDACs (catecholic derivatives) is 375 µM.

Take `O=C(CCCCC(=O)Nc1nc(-c2cc3cc(Br)ccc3oc2=O)cs1)NO` [Compound 8b, 5-[4-(6-Bromo-2-oxo-2H-chromen-3-yl)-thiazol-2-yl-carbamoyl]-N-hydroxypentanamide]: in data set [1], the inhibition at 1 µM is 72.7 ± 3.9%, the inhibition at 5 µM amounted to 94.4 ± 7% and the inhibition at 10 µM turned out to be 104 ± 2.8%. Moreover, the IC50 on HDAC6 human recombinant was 0.0802 ± 0.0037 µM. For the same compound, at HDAC1 human recombinant, the concentration for half-maximal inhibition (IC50) stood at 0.0454 ± 0.0026 µM. This compound came in with a CC50 at 48 h in data set [2] of 72.4 µM. This compound also had a CC50 in data set [3] of 72.5 ± 11.6 µM. This compound also returned a half-inhibitory concentration (IC50) in [4] of 0.0571 ± 0.0045 µM.

As for `O=C(O)CCCc1ccccc1` [phenylbutyric acid], the IC50 in the data set with HDACs (short chain fatty acids) was 620 µM.

Take `O=C(CCCCC1CCSS1)Nc1nc(-c2cc3cc(Br)ccc3oc2=O)cs1` (centres unmarked) [Compound 5b, 5-[1,2]-Dithiolan-3-yl-N-[4-(6-bromo-2-oxo-2H-chromen-3-yl)-thiazol-2-yl]-pentanamide]: the melting point was 150 to 153 °C. Besides, in data set [1], the inhibition at 1 µM came to 71.5 ± 3.8%, the inhibition at 5 µM amounted to 89.1 ± 9.5% and the inhibition at 10 µM worked out at 96.4 ± 4.7%. For the same compound, the IC50 at HDAC6 human recombinant was found to be 0.123 ± 0.0051 µM. At HDAC1 human recombinant, the 50% inhibitory concentration (IC50) came out at 0.0476 ± 0.0023 µM. The compound also gave a CC50 at 48 h in data set [2] of 127 ± 19.2 µM. The IC50 in data set [4] came out at 0.0621 ± 0.0025 µM.

Compound `COc1ccc2oc(=O)c(-c3csc(NC(=O)CCCCC4CCSS4)n3)cc2c1` (centres unmarked) [Compound 5c, 5-[1,2]-Dithiolan-3-yl-N-[4-(6-methoxy-2-oxo-2H-chromen-3-yl)-thiazol-2-yl]-pentanamide] gave a melting point of 83 to 84 °C. Moreover, in data set [1], the inhibition at 1 µM came out at 67 ± 8.3%, the inhibition at 5 µM was found to be 83.2 ± 6.8% and the inhibition at 10 µM was 91.2 ± 3.2%. Besides, the 50% inhibitory concentration (IC50) on HDAC6 human recombinant stood at 0.0841 ± 0.0029 µM. In addition, the IC50 at HDAC1 human recombinant is 0.0397 ± 0.0013 µM. The same compound returned a CC50 at 48 h in [2] of 171 ± 6.1 µM. Moreover, in data set [4], the IC50 amounted to 0.05 ± 0.0017 µM.

On to `CCCC(CCC)C(=O)O` [valproic acid], for which the half-inhibitory concentration (IC50) in the data set on HDACs (short chain fatty acids) is 140 µM.

For the compound `Nc1ccccc1NC(=O)c1ccc(CNc2nccc(-c3cccnc3)n2)cc1` [mocetinostat], the “concentration shown to inhibit the proliferation of CFs” value in the data set with CFs is 1 µM.

`O=C(O)/C=C/c1ccc(O)c(O)c1` [caffeic acid]: in the data set on HDACs (catecholic derivatives), the half-maximal inhibitory concentration (IC50) was 2540 µM.

In the case of `COc1ccc2oc(=O)c(-c3csc(NC(=O)CCCCC(=O)NO)n3)cc2c1` [Compound 8c, 5-[4-(6-Methoxy-2-oxo-2H-chromen-3-yl)-thiazol-2-yl-carbamoyl]-N-hydroxypentanamide], the melting point is 125 to 127 °C (dec.). Further, in data set [1], the inhibition at 1 µM turned out to be 69.7 ± 9.1%, the inhibition at 5 µM came out at 81.8 ± 5.5% and the inhibition at 10 µM amounted to 97.7 ± 4.7%. The IC50 on HDAC6 human recombinant came to 0.0626 ± 0.0023 µM. Also, the IC50 on HDAC1 human recombinant was determined as 0.0465 ± 0.0022 µM. For the same compound, the CC50 at 48 h in data set [2] came out at 86.5 ± 5.9 µM. In [4], this compound gave a half-inhibitory concentration (IC50) of 0.0415 ± 0.0027 µM.
